PubChem BioAssay AID2060351 (Molecular Pharmacology Branch, DTP, NCI, 2025)
Where “and” joins values, the source holds several entries; their conditions need not be identical. Equal entries are not always repeated.

Test system: 521955-158-R7-J2-PDC spheroids, viability % test/control
Test: Anticancer human tumor 521955-158-R7-J2-PDC patient-derived pancreatic carcinoma cell line growth inhibition [TAK]
Conditions: spheroids with HUVEC and MSC; for viability, T/C: stronger effect = lower value
Text: Combinatorial screen of targeted agents with TAK-243 and ipatasertib in multi-cell type tumor spheroids
A high-throughput screen of multi-cell type tumor spheroids was designed to identify active combinations of targeted small molecules and TAK-243 or ipatasertib. Complex spheroids include a stromal component modeled by human endothelial cells (HUVEC) and fibroblasts modeled by human mesenchymal stem cells (MSCs). The concentration ranges selected for each drug and investigational agent were based upon clinically achievable concentrations if the clinical Cmax of the agent was known.
Compounds. The drugs and investigational agents: TAK-243 (785004), ipatasertib (767898), everolimus (733504), selumetinib (741078), bortezomib (756655), trametinib (758246), ixazomib (758254), vemurafenib (761431), dabrafenib (764134), sapanisertib (764658), alpelisib (765974), and copanlisib (816437), were obtained from the National Cancer Institute (NCI) Developmental Therapeutics Program Chemical Repository. The FDA-approved anticancer drug set is available from the NCI Developmental Therapeutics Program. […] The stock solutions were prepared in dimethyl sulfoxide (DMSO, Sigma-Aldrich, St. Louis, MO, cat. D2650) at 800-fold the tested concentration and stored at -70 degrees C prior to their use. All drugs and investigational agents were tested over a range starting from a high concentration at or near the clinical Cmax and decreasing in half-log increments. If the clinical Cmax for an agent had not been determined, the highest concentration tested was 10 microM.
NCI60 Cell Culture. NCI60 cell lines were obtained from the NCI Developmental Therapeutics Program Tumor Repository. For each lot of cells, the Repository performed Applied Biosystems AmpFLSTR Identifiler testing with PCR amplification to confirm consistency with the published Identifier STR profile for each cell line. Cells were kept in continuous culture for no more than 20 passages. The optimal seeding densities for each of the cell lines at each time point assessed were determined prior to performing the concentration response studies. Briefly, the NCI60 human tumor lines were grown as monolayers in RPMI 1640 medium supplemented with 10% FBS and 2 mmol/L L-glutamine.
An additional 2 lines were from the NCI60 cell line panel including melanomas, MALME-3M and SK-MEL-2. Pooled donor human umbilical vein endothelial cells (HUVEC, Lonza, cat. CC-2519) and human mesenchymal stem cells (hMSC, Lonza, cat. PT-2501) were purchased from Lonza (Walkersville, MD).
PDMR cell lines were grown in complete medium (DC medium): Dulbecco's modified Eagle's medium (DMEM)/F12 supplemented with 5% fetal bovine serum (FBS), 2 mM L-glutamine, 100 U/mL penicillin and 100 µg/ml streptomycin, 0.4 µg/ml hydrocortisone, 10 ng/ml epidermal growth factor (EGF) recombinant human protein, 24 µg/mL adenine, and 0.1 mg/mL primocin. During culture from frozen stock vials, PDMR cells were cultured in the same medium containing 10 µM Y-27632 (see Table 3). The PDCs were cultured in complete DMEM/F12 media without 10 microM Y-27632 dihydrochloride for at least two passages prior to the screen. The pooled donor HUVEC and hMSC were cultured in endothelial cell growth medium 2 (PromoCell, Heidelberg, Germany, cat. C-22011) and mesenchymal stem cell growth medium 2 (PromoCell, cat. C-28009), respectively. For all experiments, HUVEC and hMSC were used at passages </=5.
For the pre-screen, cell seeding densities were determined from a titration spanning the range from 5,000 to 313 cells per well. The mct-spheroids including 60% malignant cells, 25% HUVEC and 15% MSC dispensed as a mixture into U-bottom Ultra-Low Attachment 384-well plates (Corning, NY)
High-throughput Drug Combination Screening.
Prior to their inoculation into 384-well plates, malignant cells, HUVEC, and hMSC were removed from T flasks using TrypLE express (Thermo Fisher Scientific, cat. 12605036) and harvested by centrifugation for 5 min at 233 x g. […]
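Note: spheroids exposed to compound for 7 days before readout.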

Compound	IC50 (curve of compound)	viability, T/C (compound 0.0316 µM)	viability, T/C (compound 0.1 µM)	viability, T/C (compound 0.316 µM)	viability, T/C (compound 1 µM)	viability, T/C (compound 0.000316 µM)	viability, T/C (compound 0.001 µM)	viability, T/C (compound 0.00316 µM)	viability, T/C (compound 0.01 µM)	other results
CC(=O)Nc1cccc(-n2c(=O)n(C3CC3)c(=O)c3c(Nc4ccc(I)cc4F)n(C)c(=O)c(C)c32)c1	1.89 nM and 1.25 nM	–	–	–	–	–	–	–	–	viability, T/C (compound 94.9 pM): 97.3% and 89.9%; viability, T/C (compound 0.0003 µM): 67.1% and 65.7%; viability, T/C (compound 0.000949 µM): 57.9% and 54.9%; viability, T/C (compound 0.003 µM): 48.7% and 39.5%; viability, T/C (compound 0.00949 µM): 32.1% and 27.2%; viability, T/C (compound 0.03 µM): 19.2% and 16.3%
CC(C)(C)c1nc(-c2cccc(NS(=O)(=O)c3c(F)cccc3F)c2F)c(-c2ccnc(N)n2)s1	> 10000 nM	105% and 103%	113% and 78.3%	99% and 128%	101% and 131%	–	–	–	–	viability, T/C (compound 3.16 µM): 104% and 97.7%; viability, T/C (compound 10 µM): 79% and 93.3%
CC(C)CC(NC(=O)C(Cc1ccccc1)NC(=O)c1cnccn1)B(O)O (configuration not stated)	5.54 nM and 5.47 nM	–	–	–	–	96.1% and 93.2%	88.4% and 100%	103% and 93%	4.87% and 2.64%	viability, T/C (compound 31.6 pM): 94% and 103%; viability, T/C (compound 0.0001 µM): 82.3% and 99.8%
CC(C)CC(NC(=O)CNC(=O)c1cc(Cl)ccc1Cl)B1OC(=O)CC(CC(=O)O)(C(=O)O)O1 (configuration not stated)	42 nM and 31.6 nM	65.7% and 50.1%	2.27% and 1.64%	–	–	111% and 81.1%	73.9% and 80.3%	90.1% and 80%	111% and 82.8%	–
CC(C)NCC(C(=O)N1CCN(c2ncnc3c2C(C)CC3O)CC1)c1ccc(Cl)cc1 (configuration not stated)	–	–	–	–	–	–	–	–	–	viability, T/C (compound 30 µM): 84.2% [middle of 10 runs]; IC50 (compound alone, run of 02/20/2020): > 30000 nM
CC(C)n1nc(-c2ccc3oc(N)nc3c2)c2c(N)ncnc21	> 100 nM	76% and 109%	71.2% and 53.7%	–	–	78.4% and 94.7%	79.4% and 104%	81.2% and 82.3%	86.4% and 90.7%	–
CCCS(=O)(=O)Nc1ccc(F)c(C(=O)c2c[nH]c3ncc(-c4ccc(Cl)cc4)cc23)c1F	> 100000 nM	–	–	98.6% and 98.4%	97.2% and 95.1%	–	–	–	–	viability, T/C (compound 3.16 µM): 94.6% and 78.2%; viability, T/C (compound 10 µM): 108% and 71%; viability, T/C (compound 31.6 µM): 82.2% and 67.9%; viability, T/C (compound 100 µM): 90.6% and 82.5%
COC1CC2CCC(C)C(O)(O2)C(=O)C(=O)N2CCCCC2C(=O)OC(C(C)CC2CCC(OCCO)C(OC)C2)CC(=O)C(C)C=C(C)C(O)C(OC)C(=O)C(C)CC(C)C=CC=CC=C1C (configuration not stated)	> 100 nM	109% and 117%	102% and 85.5%	–	–	103%	77.4% and 84.4%	75.2% and 91.7%	90.3% and 101%	–
COc1c(OCCCN2CCOCC2)ccc2c3n(c(=NC(=O)c4cnc(N)nc4)nc12)CCN3	22.6 nM and 25.2 nM	41.4% and 50.6%	26.5% and 25.3%	14.9% and 13.6%	10% and 10.6%	–	–	87.5% and 86.9%	67.9% and 63.5%	–
Cc1nc(NC(=O)N2CCCC2C(N)=O)sc1-c1ccnc(C(C)(C)C(F)(F)F)c1 (configuration not stated)	4560 nM and 3720 nM	83.2% and 92.5%	64.2% and 84.5%	59.4% and 74%	70.8% and 73.5%	–	–	–	–	viability, T/C (compound 3.16 µM): 58.1% and 52.5%; viability, T/C (compound 10 µM): 34.1% and 30.3%
Cn1cnc2c(F)c(Nc3ccc(Br)cc3Cl)c(C(=O)NOCCO)cc21	41.6 nM and 87.7 nM	–	–	–	–	–	–	–	–	viability, T/C (compound 0.00949 µM): 66.3% and 85.1%; viability, T/C (compound 0.03 µM): 54.9% and 61.7%; viability, T/C (compound 0.0949 µM): 38.7% and 44.3%; viability, T/C (compound 0.3 µM): 31.6% and 43.3%; viability, T/C (compound 0.949 µM): 25.7% and 30%; viability, T/C (compound 3 µM): 14.6% and 16.5%
